SMILES strings stand for the structures. Like-named read-outs stand apart in the source and are kept apart here.

Series [1] is described as follows: clinical. As to conditions: female, human, in vivo; for AUC(0-inf): AUC0-inf; for Tmax: Tmax (Median); for half-life: t1/2.
Protocol: This study was conducted at 1 study site and consisted of 3 study periods. […] Application sites were to be either periumbilical or upper thigh regions each with 2 wear times of 10 seconds and 15 minutes. […] Application sites were to be either periumbilical with 10 second and 15 minute wear times or upper thigh regions with a 15 minute wear time. […] Application times were to included 30 seconds, 1, 5, 15, 60 minutes, and 24 hours. New subjects were to be enrolled in each study period.
Details of series [2]: AUCR: unit not given beside the values. The following applies: in vivo.
Series [3] can be described thus: in vivo. The following applies: female, Sprague Dawley, rat, sc.
Protocol: On day 14 of dosing approximately 3 mL of blood was collected 15 minutes post dose. The blood was immediately transferred to a serum separator tube that contained 60 μL of a 2.5 mg/mL aprotinin (Sigma) solution. The blood was kept at room temperature for approximately 45 minutes to allow it to clot. Once clotted, the blood was centrifuged at 2500 rpm for 10 minutes. Serum was stored at −80° C.
A short description of series [4]: in vivo. The following applies: rat, sc, 20 ug/kg.
Protocol: Certain drug coated microarrays were tested in vivo in a preclinical model using Sprague Dawley rats. […] Male Sprague Dawley rats with jugular vein catheters were purchased from Charles River Laboratories. Once received, they were acclimated for at least 24 hours prior to dosing.
Typically, one hour prior to dosing microneedle arrays were removed from refrigeration (approximately 4° C.) and allowed to equilibrate to room temperature.
The standard procedure for skin preparation and microneedle array application is as follows.
One day prior to dosing, an area just above the hind legs on the dorsal surface of the rat was shaved using electric clippers. Nair® hair removal lotion (Church & Dwight Co.) was then applied to the area for 5 to 8 minutes to remove remaining fur stubble. The Nair® lotion was then thoroughly removed using a damp cloth. The next day a microneedle array was applied using a spring-loaded applicator. The microneedle array was left in contact with skin for five minutes, before being removed. During array application and contact time the rats were manually restrained.
Blood was collected at three time points from each animal out of a possible total of five time destinations (5 minutes, 15 minutes, 30 minutes, 45 minutes, 90 minutes) from each rat on a staggered schedule so that all time points would be represented with extra sampling at 15 minutes without overdrawing from any animal. Approximately 1 mL of blood was collected via the catheter from the jugular vein using a syringe and needle from rats for their first two blood draws. For the terminal blood collection, animals were euthanized via CO2 chamber and approximately 1 mL of blood was collected via cardiac puncture. The blood was immediately transferred to a serum separator tube that contained 25 μL of a 2.5 mg/ml aprotinin (Sigma) solution.
Blood was collected from each rat 5, 10, 15, 30 and 45 minutes post dose. Approximately 600 μL of blood was collected via the catheter from the jugular vein using a syringe and needle from rats for their first four blood draws. For the terminal blood collection, animals were euthanized via CO2 chamber and approximately 600 μL of blood was collected via cardiac puncture. The blood was immediately transferred to a serum separator tube that contained 12 μL of a 2.5 mg/ml aprotinin (Sigma) solution.
Blood was collected three or four times from each rat at the time points depicted in the tables below. Approximately 1 mL of blood was collected via the catheter from the jugular vein using a syringe and needle from rats for any non-terminal time points. For the terminal blood collection, animals were euthanized via CO2 chamber and approximately 1 mL of blood was collected via cardiac puncture. The blood was immediately transferred to a serum separator tube that contained 20 μL of a 2.5 mg/ml aprotinin (Sigma) solution.
Blood was collected from each rat 5, 15, 30, 45, 90 and 120 minutes post dose. Approximately 500 μL of blood was collected via the catheter from the jugular vein using a syringe and needle from rats for their first five blood draws. For the terminal blood collection, animals were euthanized via CO2 chamber and approximately 500 μL of blood was collected via cardiac puncture.

On to `CC[C@H](C)[C@H](NC(=O)[C@H](CO)NC(=O)[C@H](CCCCN)NC(=O)CNC(=O)[C@H](CCCCN)NC(=O)[C@H](CC(=O)O)NC(=O)[C@H](Cc1cnc[nH]1)NC(=O)[C@H](CC(C)C)NC(=O)[C@H](CC(C)C)NC(=O)[C@H](CCC(N)=O)NC(=O)[C@H](Cc1cnc[nH]1)NC(=O)[C@H](CCC(=O)O)NC(=O)[C@H](CO)NC(=O)[C@@H](NC(=O)[C@H](C)N)C(C)C)C(=O)N[C@@H](CCC(N)=O)C(=O)N[C@@H](CC(=O)O)C(=O)N[C@@H](CC(C)C)C(=O)N[C@@H](CCCNC(=N)N)C(=O)N[C@@H](CCCNC(=N)N)C(=O)N[C@@H](CCCNC(=N)N)C(=O)N[C@@H](CCC(=O)O)C(=O)N[C@@H](CC(C)C)C(=O)N[C@@H](CC(C)C)C(=O)N[C@@H](CCC(=O)O)C(=O)N[C@@H](CCCCN)C(=O)N[C@@H](CC(C)C)C(=O)N[C@@H](CC(C)C)C(=O)NC(C)(C)C(=O)N[C@@H](CCCCN)C(=O)N[C@@H](CC(C)C)C(=O)N[C@@H](Cc1cnc[nH]1)C(=O)N[C@H](C(=O)N[C@@H](C)C(N)=O)[C@@H](C)O`, for which, in series [1] (100 ug), the AUC(0-inf) was determined as 0.177 ± 0.0869 ng·h/mL, the Tmax worked out at 12.1 min, the Vd/F amounted to 366 ± 128 L and the half-life is 24.1 ± 7.56 min. Further, in series [1] (100 ug, AUC0-t), the AUC(0-t) turned out to be 0.154 ± 0.0693 ng·h/mL. Further, the AUC in series [1] (100 ug, AUC0-tau) turned out to be 0.177 ± 0.0868 ng·h/mL. In addition, in series [1] (100 ug, Cmax), the concentration peaked (Cmax) at 0.317 ± 0.0806 ng/mL. Also, in series [1] (150 ug), the AUC(0-inf) worked out at 0.269 ± 0.265 ng·h/mL, the Tmax was 9.84 min and the half-life is 34.1 ± 28.3 min. Further, in series [1], the time to peak (Tmax) is 7.8 min, the Vd/F was 491 ± 208 L and the half-life is 28 ± 25 min. In series [1] (sc), the apparent clearance (CL/F) is 2340 mL/min, the Tmax is 25.3 min, the Vd/F turned out to be 197 ± 86.2 L and the half-life was 58.2 ± 11.1 min. This molecule gave an apparent clearance (CL/F) in series [1] (topical or ocular, 100 ug) of 6710 mL/min. In addition, in series [2] (100 ug), the AUC0-inf/dose is 1.77 ± 0.869 pg·h/mL/µg, the AUC0-tau/dose was 1.77 ± 0.868 pg·h/mL/µg, the AUCR was determined as 0.898 ± 0.0169 and the apparent clearance CL/F stood at 666.2 ± 284.4 L/h. Besides, in series [2] (sc), the AUC0-inf/dose was 7.92 ± 2.83 pg·h/mL/µg; the AUC0-tau/dose amounted to 7.91 ± 2.83 pg·h/mL/µg; the “Mean Dose Normalized AUC0-inf, SC Dose” value stood at 7.92.
`CC[C@H](C)[C@H](NC(=O)[C@H](CO)NC(=O)[C@H](CCCCN)NC(=O)CNC(=O)[C@H](CCCCN)NC(=O)[C@H](CC(=O)O)NC(=O)[C@H](Cc1cnc[nH]1)NC(=O)[C@H](CC(C)C)NC(=O)[C@H](CC(C)C)NC(=O)[C@H](CCC(N)=O)NC(=O)[C@H](Cc1cnc[nH]1)NC(=O)[C@H](CCC(=O)O)NC(=O)[C@H](CO)NC(=O)[C@@H](NC(=O)[C@H](C)N)C(C)C)C(=O)N[C@@H](CCC(N)=O)C(=O)N[C@@H](CC(=O)O)C(=O)N[C@@H](CC(C)C)C(=O)N[C@@H](CCCNC(=N)N)C(=O)N[C@@H](CCCNC(=N)N)C(=O)N[C@@H](CCCNC(=N)N)C(=O)N[C@@H](CCC(=O)O)C(=O)N[C@@H](CC(C)C)C(=O)N[C@@H](CC(C)C)C(=O)N[C@@H](CCC(=O)O)C(=O)N[C@@H](CCCCN)C(=O)N[C@@H](CC(C)C)C(=O)N[C@@H](CC(C)C)C(=O)NC(C)(C)C(=O)N[C@@H](CCCCN)C(=O)N[C@@H](CC(C)C)C(=O)N[C@@H](Cc1cnc[nH]1)C(=O)N[C@H](C(=O)N[C@@H](C)C(N)=O)[C@@H](C)O` [reference SC] displayed a level at 0.25 h in series [3] of 0.0108 ± 0.0036 ng/mL. In series [4] (Cmax), this molecule showed a Cmax of 8.9 ng/mL. Also, the Tmax in series [4] (Tmax) was 10 min. Further, in series [4] (t1/2), the half-life is 31 min.

As a reminder, the AUC(0-inf) is total exposure, with the tail of the curve extrapolated. For orientation: AUC(0-t) means exposure summed from dosing to a finite time, without extrapolation to infinity. In general, AUC refers to the area under the concentration-time curve, a measure of exposure. Broadly, the Cmax is the highest concentration seen after dosing. One may read the Tmax as the time from dosing to the highest level. As usually defined, the Vd/F is the volume of distribution divided by bioavailability. In general, half-life refers to the time in which the quantity being followed falls by half. The CL/F is clearance divided by bioavailability, as obtained after extravascular dosing.

For the origin of these results see patent US20210052705A1, “METHOD OF DRUG […] FOR PTH, PTHrP AND RELATED PEPTIDES” (Radius Health, Inc., priority 2011, published 2021).
